The source of these data is PubChem BioAssay (NCI).

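1) Cells in 96-well plates. 2) Compound, 48 h, 5 concentrations. 3) Linear interpolation between surrounding doses. 4) Unreached endpoint = highest concentration. TGI: concentration producing complete growth inhibition.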 Bounds are passed on as bounds.

Holding throughout (assay): growth of human tumour cells (NCI), 48 h
The subject of assay [1] is HS 578T breast.
Assay [2] relates to U251 CNS.
For assay [3], the system named is CCRF-CEM leukemia.
Assay [4] relates to A549 NSCLC.
Assay [5] concerns DU-145 prostate.
Assay [6] relates to EKVX NSCLC.
Assay [7] has as its system PC-3 prostate.
In assay [8] the test system is HT29 colon.
The test system of assay [9] is HOP-62 NSCLC.
The subject of assay [10] is T-47D breast.

In the case of `COc1cc(Br)cc2cc(-c3cn4c(n3)sc3ccccc34)c(=O)oc12`, the TGI is 39.9 µM in [1]; 72.1 µM in assay [2]; greater than 75 µM in assay [3]; greater than 75 µM in [4]; 48.1 µM in assay [5]; 52.1 µM in [6]. The TGI in assay [7] was 41.2 µM; in assay [8], greater than 75 µM; in [9] it was greater than 75 µM.

On to `CC1CC2=C(S(=O)(=O)c3ccccc3)CC(S(=O)(=O)c3ccccc3)(S(=O)(=O)c3ccccc3)CC21` (stereo not drawn), for which the TGI in assay [2], in assay [3], in assay [4], in assay [6], in [8] and in assay [9] was greater than 100 µM in each case.

As to `CCOc1ncn(-c2ccc(NC(=S)NC3OC(CO)C(O)C(O)C3O)cc2)n1` (stereo not drawn), the TGI in assay [2], in [3], in [4], in assay [5], in [6] and in [10] was greater than 100 µM each time. Moreover, the TGI in assay [7], in assay [8] and in assay [9] was greater than 100 µM throughout.

For `O=C(NC(Cc1ccccc1)(Cc1ccc(O)cn1)C(=O)O)c1ccccc1` (stereo not drawn), the TGI in assay [1], in assay [2], in assay [3], in [4], in [5] and in [6] was greater than 100 µM throughout. Moreover, the TGI in [7], in assay [8] and in assay [9] was greater than 100 µM throughout.

On to `O=C1NC(=S)NC(=O)C1C(c1ccc(O)cc1)C1C(=O)NC(=S)NC1=O`, for which the TGI in [2], in [3], in assay [4], in assay [5], in [10] and in assay [7] was greater than 100 µM in each case. Also, the TGI in assay [8] and in assay [9] was greater than 100 µM each time.

`C[C@@H]1Nc2cc(NC(=O)OCCF)nc(N)c2N=C1c1ccccc1`: the TGI is 12.2 µM in assay [2], 46.6 µM in assay [4], greater than 100 µM in [10] and greater than 100 µM in [7].

Turning to `CC(C)=C[C@H]1CCC2(OCCO2)[C@]1(C)COCc1ccccc1`, the TGI was 34.5 µM in [3]; greater than 100 µM in [4]; greater than 100 µM in [6]; greater than 100 µM in [10]; greater than 100 µM in assay [7].

For the molecule `O=C1c2ccsc2C(=O)c2sc(CO)cc21`, the TGI worked out at 0.191 µM in [1]; 0.421 µM in assay [2]; 1.35 µM in assay [3]; 0.125 µM in assay [4]; 2.39 µM in assay [6]; 1.78 µM in assay [7]. The TGI in assay [8] was found to be 0.444 µM; in assay [9], 0.325 µM.

Regarding `CCOC(=O)Cc1nc2cc(F)c(F)cc2[nH]c1=O`, the TGI in assay [1], in [2], in assay [3], in [4], in assay [5] and in [6] was greater than 100 µM each time. Further, the TGI in assay [7], in [8] and in assay [9] was greater than 100 µM in each case.

For `O=c1c2ccccc2nc(Cc2nc(-c3ccc(Cl)cc3)cs2)n1-c1ccc(Cl)cc1`, the TGI in assay [1], in assay [2], in assay [3], in [4], in assay [5] and in assay [6] was greater than 100 µM throughout. The TGI in assay [7], in [8] and in assay [9] was greater than 100 µM in each case.

For the molecule `CCCCC1Cc2ccccc2-c2nc3ccccc3n21` (stereo not drawn), the TGI was 35.4 µM in assay [1]; 30.9 µM in assay [2]; 38.1 µM in [5]; 50 µM in assay [6]; 29.4 µM in assay [10]; 22.1 µM in assay [7]. Besides, the TGI was determined as 29.6 µM in assay [8] and 36.5 µM in [9].

Turning to `CCOC(=O)c1ccc(NCc2ccc3oc(=O)c(-c4ccccc4)nc3c2)cc1`, the TGI in assay [2] is greater than 100 µM; in assay [3] it was 22.6 µM; in [4], greater than 100 µM; in assay [5], greater than 100 µM; in assay [6] it was greater than 100 µM; in assay [10], 34.1 µM. The TGI in assay [7], in assay [8] and in [9] was greater than 100 µM in each case.

As for `CCOC1=NC(O)c2cccn2-c2sccc21` (stereo not drawn), the TGI in assay [2], in assay [4], in assay [5], in assay [10], in assay [7] and in assay [8] was greater than 100 µM in each case. The TGI in assay [9] is greater than 100 µM.

Regarding `O=c1cc(-c2ccc(Oc3ccccc3)cc2)[nH]c2cc3c(cc12)OCO3`, the TGI in assay [2], in assay [3], in assay [4], in assay [6], in assay [8] and in assay [9] was greater than 100 µM in each case.

As for `CCN(CC)CCSc1c2cc(OC)ccc2nc2ccc(OC)cc12`, the TGI in assay [2] was greater than 53.1 µM; in assay [3] it was greater than 22.6 µM; in assay [4] it was greater than 70.9 µM; in assay [5], 3.56 µM; in [6], 29.7 µM; in assay [7] it was 12.1 µM. The molecule further gave a TGI in assay [9] greater than 75.4 µM.

Regarding `CC(C)=CCC(O)[C@](C)(O)[C@H]1[C@H](O)C[C@@]2(C)[C@@H]3CCc4cc(O)c(OC5OC(CO)C(O)C(O)C5O)cc4C3(C)C(=O)C[C@]12C` (stereo partly drawn), the TGI in assay [2], in assay [3], in assay [4], in assay [5], in [6] and in [10] was greater than 100 µM in each case. Further, the TGI in [7], in assay [8] and in assay [9] was greater than 100 µM throughout.

Turning to `COc1ccc(S(=O)(=O)c2ccccc2[N+](=O)[O-])cc1`, the TGI in assay [2], in [3], in assay [4], in [6], in assay [8] and in assay [9] was greater than 100 µM each time.

As to `CCO/C=N\C1=C(C#N)SC2=N/C(=C\c3ccc(OC)cc3)C(=O)N21`, the TGI in [1], in assay [2], in [3], in assay [4], in assay [5] and in assay [6] was greater than 100 µM throughout. For the same molecule, the TGI in assay [10] and in assay [8] was greater than 100 µM in each case.

As to `CC(C)=C[C@H]1CCC2(OCCO2)[C@]1(C)CO`, the TGI in assay [3], in assay [4], in assay [6], in assay [10] and in assay [7] was greater than 100 µM throughout.

Turning to `Nc1nc([O-])c2c(n1)[n+](C1OC(CO)C(O)C1O)cn2CCO` (stereo not drawn), the TGI in assay [2], in assay [3], in assay [4], in assay [6], in assay [8] and in assay [9] was greater than 100 µM in each case.

As for `CN=C(SC)N(C)c1nc(=[N+](C)C)ss1`, the TGI in assay [2], in [3], in assay [4], in assay [6], in assay [8] and in [9] was greater than 100 µM in each case.

As to `COc1cc(OC)c2c(C)cc(=O)oc2c1`, the TGI in assay [1], in [2], in assay [3], in assay [4], in [5] and in assay [6] was greater than 100 µM each time. The TGI in assay [7], in assay [8] and in assay [9] was greater than 100 µM throughout.

On to `C(/C=C/Nc1ccc(Oc2ccccc2)cc1)=Nc1ccc(Oc2ccccc2)cc1`, for which the TGI in assay [1] worked out at 43.4 µM; in assay [2], 33.2 µM; in assay [3], 37 µM; in [4], 42 µM; in [5] it was 39.5 µM; in assay [6], 34.7 µM. Moreover, the values for the TGI in assay [7], in [8] and in [9] were 28.4 µM, 29.7 µM and 38 µM, respectively.

Consider `CC(C)OC(=O)/C=C/C(=O)O/C=C/[N+](=O)[O-]`, for which the TGI is greater than 100 µM in [2]; greater than 100 µM in assay [4]; greater than 100 µM in assay [5]; greater than 100 µM in assay [6]; 46.4 µM in [10]; greater than 100 µM in assay [7]. Besides, the TGI in [8] and in [9] was greater than 100 µM in each case.

Regarding `CC1(C)C[C@@H]2C1CCC1(C)CC2(O)CC[C@H]1O` (stereo partly drawn), the TGI in assay [1], in [2], in assay [3], in [4], in assay [6] and in assay [10] was greater than 100 µM each time. Moreover, the TGI in assay [7], in [8] and in [9] was greater than 100 µM in each case.

On to `N#C/C(=C/NC(N)=S)C(N)=O`, for which the TGI in [2], in [4], in [5], in assay [6], in [10] and in assay [8] was greater than 100 µM each time. In assay [9], this molecule showed a TGI greater than 100 µM.

Regarding `O=C(/C=C/c1ccc2ccccc2c1)NCc1ccc(C(=O)NCCc2ccccc2)cc1`, the TGI in [2], in assay [3], in [4], in [5], in assay [10] and in [7] was greater than 100 µM throughout. The TGI in [9] is greater than 100 µM.

On to `CN(C)CC1CCCC(CN(C)C)C1OC(=O)c1ccccc1` (stereo not drawn), for which the TGI in assay [2], in [3], in assay [4], in assay [6], in [8] and in assay [9] was greater than 100 µM each time.

As for `C[Si](C)(C)OC1CC(=O)OC1n1cc(F)c(=O)[nH]c1=O` (stereo not drawn), the TGI is greater than 100 µM in assay [2]; greater than 96.4 µM in assay [3]; greater than 100 µM in [4]; greater than 100 µM in assay [6]; greater than 100 µM in assay [8]; greater than 100 µM in assay [9].

Consider `CCOC(=O)CNC(=O)N(CC)C12CC3CC(CC(C3)C1)C2`, for which the TGI was 239 µM in assay [2]; 388 µM in assay [3]; 602 µM in [4]; 358 µM in assay [6]; 204 µM in assay [8]; 266 µM in assay [9].

`CCN(CC)C1CC(O[C@H]2C[C@](O)(C(=O)CO)Cc3c(O)c4c(c(O)c32)C(=O)c2c(OC)cccc2C4=O)OC(C)C1O` (stereo partly drawn): the TGI in [2] was found to be 1.19 µM; in assay [3] it was 1.41 µM; in assay [4] it was 0.394 µM; in assay [6], 0.336 µM; in assay [8], 1.64 µM; in [9] it was 0.455 µM.

As for `O=Cc1ccccc1COC(=O)c1cc(C(=O)OCc2ccccc2C=O)c(C(=O)OCc2ccccc2C=O)cc1C(=O)OCc1ccccc1C=O`, the TGI in assay [2], in assay [3], in assay [4], in [6] and in [8] was greater than 100 µM in each case.

For the molecule `N#CCCC(CCC#N)(CCC#N)NO`, the TGI in assay [1], in assay [2], in assay [4], in assay [5], in assay [6] and in [10] was greater than 100 µM each time. Also, the TGI in assay [7] and in [8] was greater than 100 µM throughout.

Turning to `CC1=CCC(O)C=CC(C)C(O)C(C)C=C(C)C(=O)c2c(O)c(C)cc3c2C(=O)C(N)=C(NC(=O)/C=C\C=C/C=CC(C)C(O)CC1=O)C3=O` (stereo not drawn), the TGI in [2], in assay [3], in assay [4], in [6], in [8] and in [9] was greater than 100 µM each time.

With `Cn1c([C@H](C#N)c2ncccc2[N+](=O)[O-])nc2ccccc21`, the TGI in assay [1] is 75.1 µM; in assay [2], greater than 100 µM; in [3], greater than 100 µM; in assay [4], greater than 100 µM; in [6], greater than 100 µM; in [7], greater than 100 µM. For the same molecule, the results for the TGI in assay [8] and in assay [9] were greater than 100 µM and 67.6 µM, respectively.
